Experimental findings from US20100285039A1, “B7-H1 (CD274) Antagonists Induce Apoptosis of Tumor Cells” (THE JOHNS HOPKINS UNIVERSITY, priority 2008, published 2010) are described below.

The subject of one test is B7-H1/P815 cells. Description: Staurosporine induced apoptosis (annexin V/PI). The format is cell-based, mouse. The settings on record: Staurosporine (STP 1 μM), control Ig-treated cells.
Test [1] addresses wild type murine B7-H1 expressed on P815 cells (B7-H1/P815) (mouse) (UniProt Q9EP73). Description: cell-based or functional assay.

Chain of wild type murine B7-H1 expressed on P815 cells (B7-H1/P815) (mouse) (Q9EP73 19-290): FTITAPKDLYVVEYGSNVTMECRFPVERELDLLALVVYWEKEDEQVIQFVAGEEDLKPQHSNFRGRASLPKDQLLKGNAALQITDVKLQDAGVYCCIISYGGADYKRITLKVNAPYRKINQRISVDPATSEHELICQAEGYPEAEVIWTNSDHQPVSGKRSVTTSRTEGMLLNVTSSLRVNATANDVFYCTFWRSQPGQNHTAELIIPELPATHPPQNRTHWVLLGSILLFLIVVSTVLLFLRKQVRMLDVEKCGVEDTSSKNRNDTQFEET
Description for B7-H1/P815 cells: PD-1Ig fusion protein or control IgG were coated on 96 well-plates for 18 hr at 4° C. Full length B7-H1/P815 cells were cultured with STP (1 μM) in the well coated PD-1Ig or control IgG. Cells were harvested after 24 hr and stained with annexin V (BD PharMingen) at 5 μl/test, propidium iodide (PI) (Sigma-Aldrich) at 5 μg/ml for 1 hour and monoclonal antibodies against H-2D^d. Apoptosis was calculated as the percentage of annexin V+PI-cells gated in the H-2D^d+ fractions.
B7-H1 was assayed to determine whether it confers resistance to drugs which induce apoptosis of tumor cells. […] Staurosporine is often used as a general method for inducing apoptosis of tumor cells.

Take `CN[C@@H]1C[C@H]2O[C@@](C)([C@@H]1OC)n1c3ccccc3c3c4c(c5c6ccccc6n2c5c31)C(=O)NC4` [Staurosporine]: the “apoptosis of B7-H1/P815 cells” value in the test on B7-H1/P815 cells came out at 74.9%.
Consider “wild type murine PD-1 expressed on transduced PD-1KO 2C CTLs (PD-1/PD-1^02C) (from UniProt Q02242 25-288) (receptor)”, for which the cytolytic activity of CTLs against B7-H1/P815 targets in test [1] worked out at 50%.
